Test results: patent US9029389B2 (Institut Pasteur Korea, priority 2011, dated 2015)

Legend:
Human 5-lipoxygenase = target: T1, Human 5-lipoxygenase (Homo sapiens, UniProt P09917); assay: Activity of compounds against 5-LO enzyme (LTB4 measurement and/or fluorescence method); assay type: biochemical; conditions: for IC50: 6 or 11 point dose response in duplicate; for inhibition at 10 µM: 5-LO, single concentration of 10 uM in duplicate
T1 construct: purchased Cayman 60402; host or cells: insect cells
T1 sequence (P09917 1-674): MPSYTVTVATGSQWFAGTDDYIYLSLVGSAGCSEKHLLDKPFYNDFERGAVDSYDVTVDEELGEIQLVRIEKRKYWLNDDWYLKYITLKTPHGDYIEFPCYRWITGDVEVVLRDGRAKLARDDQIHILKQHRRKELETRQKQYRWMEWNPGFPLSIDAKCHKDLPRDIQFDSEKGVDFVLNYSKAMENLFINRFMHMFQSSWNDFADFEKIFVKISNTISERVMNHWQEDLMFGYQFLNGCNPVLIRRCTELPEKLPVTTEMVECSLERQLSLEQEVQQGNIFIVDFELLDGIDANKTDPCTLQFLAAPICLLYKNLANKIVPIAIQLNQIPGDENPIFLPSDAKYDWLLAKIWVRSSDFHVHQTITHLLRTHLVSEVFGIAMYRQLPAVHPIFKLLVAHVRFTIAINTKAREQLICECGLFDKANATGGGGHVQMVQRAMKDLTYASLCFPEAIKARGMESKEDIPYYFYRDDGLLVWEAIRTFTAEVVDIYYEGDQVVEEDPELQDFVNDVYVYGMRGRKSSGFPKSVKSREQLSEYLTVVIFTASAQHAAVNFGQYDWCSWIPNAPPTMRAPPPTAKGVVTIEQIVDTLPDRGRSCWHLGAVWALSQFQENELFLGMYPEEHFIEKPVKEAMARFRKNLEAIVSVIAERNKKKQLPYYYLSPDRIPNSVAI
Summary of the method: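 Insect-cell human 5-LO preincubated 15 min at RT with compound (pH 7.4, 2 mM CaCl2, 0.1 mM ATP, 1% DMSO), then 3 uM arachidonic acid for 5 min at 37 °C; LTB4 quantified by EIA and/or LC/MS/MS. Alternatively, fluorescence of 5-HpETE via H2DCFDA, 100 uM ATP, 3 uM arachidonic acid, 5 min, RT; single 10 uM screen then 6- or 11-point IC50.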

| SMILES | IC50 (Human 5-lipoxygenase) [µM] | melting point | inhibition at 10 µM (Human 5-lipoxygenase) [%] |
| --- | --- | --- | --- |
| CCc1nc2ccc(Cl)cn2c1CNc1ccc(-c2ccc(OC(F)(F)F)cc2)cc1 [compound 383, N-((6-chloro-2-ethylimidazo[1,2-a]pyridin-3-yl)methyl)-4′-(trifluoromethoxy)biphenyl-4-amine] | > 20 | 102 °C | – |
| CCc1nc2ccc(Cl)cn2c1C(=O)NCc1ccc(N2CCC(c3ccc(F)cc3)CC2)cc1 [compound 249, 6-Chloro-2-ethyl-N-(4-(4-(4-fluorophenyl)piperidin-1-yl)benzyl)imidazo[1,2-a]pyridine-3-carboxamide] | – | 164 °C | 40 to 69 |
| CCc1nc2ccc(Cl)cn2c1C(=O)NCc1cccc(CC(=O)Nc2ccc(F)cc2)c1 [compound 355, 6-chloro-2-ethyl-N-(3-(2-((4-fluorophenyl)amino)-2-oxoethyl)benzyl)imidazo[1,2-a]pyridine-3-carboxamide] | – | > 198.8 °C (dec.) | < 40 |
| CCc1nc2ccc(Cl)cn2c1C(=O)NCC(C)C [compound 239, 6-Chloro-2-ethyl-N-isobutylimidazo[1,2-a]pyridine-3-carboxamide] | – | 162.2 °C | < 40 |
| CCc1nc2ccc(Cl)cn2c1C(=O)NCc1ccc(N2CCN3CCCC3C2)cc1 (centres unmarked) [compound 237, 6-Chloro-2-ethyl-N-(4-(hexahydropyrrolo[1,2-a]pyrazin-2(1H)-yl)benzyl)imidazo[1,2-a]pyridine-3-carboxamide] | – | 163 °C | < 40 |
| CCc1nc2cc(Cl)ccn2c1C(=O)NCc1ccc(Oc2ccc(OC(F)(F)F)cc2)cc1 [compound 128, 7-Chloro-2-ethyl-N-(4-(4-(trifluoromethoxy)phenoxy)benzyl)imidazo[1,2-a]pyridine-3-carboxamide] | < 1 | 141 to 142 °C | > 69 |
| CCc1nc2cc(Cl)ccn2c1C(=O)NCc1ccc(N2CC(Cc3ccc(F)cc3)OC2=O)cc1 (centres unmarked) [compound 377, 7-chloro-2-ethyl-N-(4-(5-(4-fluorobenzyl)-2-oxooxazolidin-3-yl)benzyl)imidazo[1,2-a]pyridine-3-carboxamide] | – | > 96.9 °C (dec.) | < 40 |
| CCc1nc2ccc(Cl)cn2c1C(=O)NCc1ccc(N2CCC(O)(c3ccc(F)cc3)CC2)cc1 [compound 306, 6-Chloro-2-ethyl-N-(4-(4-(4-fluorophenyl)-4-hydroxypiperidin-1-yl)benzyl)imidazo[1,2-a]pyridine-3-carboxamide] | – | 173.5 °C | 40 to 69 |
| CCc1nc2ccc(F)cn2c1C(=O)NCc1ccc(Oc2ccc(OC(F)(F)F)cc2)cc1 [compound 225, 2-Ethyl-6-fluoro-N-(4-(4-(trifluoromethoxy)phenoxy)benzyl)imidazo[1,2-a]pyridine-3-carboxamide] | < 1 | 133.4 °C | > 69 |
| CCc1nc2cc(Cl)ccn2c1C(=O)NCc1ccc(CC2CCOCC2)cc1 [compound 359, 7-chloro-2-ethyl-N-(4-((tetrahydro-2H-pyran-4-yl)methyl)benzyl)imidazo[1,2-a]pyridine-3-carboxamide] | – | > 125.9 °C (dec.) | < 40 |
| CCc1nc2ccc(Cl)cn2c1C=O [compound 145, 6-Chloro-2-ethylimidazo[1,2-a]pyridine-3-carbaldehyde] | – | 115 to 116 °C | < 40 |
| CCc1nc2ccc(F)cn2c1C(=O)NC1CCN(c2ccc(Nc3ccccc3)cc2)C1 (centres unmarked) [compound 403, 2-Ethyl-6-fluoro-N-(1-(4-(phenylamino)phenyl)pyrrolidin-3-yl)imidazo[1,2-a]pyridine-3-carboxamide] | < 1 | 224.7 °C | – |
| CCc1nc2cc(Cl)ccn2c1C(=O)NCc1ccc(N2CCC(c3ccc(Cl)cc3)CC2)cc1 [compound 297, 7-Chloro-N-(4-(4-(4-chlorophenyl)piperidin-1-yl)benzyl)-2-ethylimidazo[1,2-a]pyridine-3-carboxamide] | – | 177 °C | 40 to 69 |
| C=C1CCN(c2ccc(CNC(=O)c3c(CC)nc4cc(Cl)ccn34)cc2)CC1 [compound 218, 7-Chloro-2-ethyl-N-(4-(4-methylenepiperidin-1-yl)benzyl)imidazo[1,2-a]pyridine-3-carboxamide] | – | 168.3 °C | 40 to 69 |
| CCc1nc2cc(Cl)ccn2c1C(=O)NCc1ccc(N2CCC(c3ccccc3)CC2)cc1 [compound 209, 7-Chloro-2-ethyl-N-(4-(4-phenylpiperidin-1-yl)benzyl)imidazo[1,2-a]pyridine-3-carboxamide] | – | 164.5 °C | > 69 |
| CCc1nc2cc(C)ccn2c1C(=O)NCc1ccc(N2CCN(c3ccc(F)cc3)CC2)cc1 [compound 220, 2-Ethyl-N-(4-(4-(4-fluorophenyl)piperazin-1-yl)benzyl)-7-methylimidazo[1,2-a]pyridine-3-carboxamide] | – | 203.7 °C | 40 to 69 |
| CCc1nc2ccc(Cl)cn2c1CNc1ccc(N2CCC(c3ccc(Cl)cc3)CC2)cc1 [compound 392, N-((6-chloro-2-ethylimidazo[1,2-a]pyridin-3-yl)methyl)-4-(4-(4-chlorophenyl)piperidin-1-yl)aniline] | 1 to 20 | 159.5 °C | – |
| CCc1nc2ccc(Cl)cn2c1C(=O)NCc1cccc(N2CCN(c3ccc(OC(F)(F)F)cc3)CC2)c1 [compound 356, 6-chloro-2-ethyl-N-(3-(4-(4-(trifluoromethoxy)phenyl)piperazin-1-yl)benzyl)imidazo[1,2-a]pyridine-3-carboxamide] | – | > 168 °C (dec.) | 40 to 69 |
| CCc1nc2ccc(Cl)cn2c1C(=O)NCc1ccc(C2CCOCC2)cc1 [compound 363, 6-chloro-2-ethyl-N-(4-(tetrahydro-2H-pyran-4-yl)benzyl)imidazo[1,2-a]pyridine-3-carboxamide] | – | > 195.5 °C (dec.) | < 40 |
| CCc1nc2cc(N3CCN(Cc4ccc(F)cc4)CC3)ccn2c1C(=O)NCc1ccc(N2CCOCC2)cc1 [compound 257, 2-Ethyl-7-(4-(4-fluorobenzyl)piperazin-1-yl)-N-(4-morpholinobenzyl)imidazo[1,2-a]pyridine-3-carboxamide] | – | 212.5 °C | 40 to 69 |
| CCc1nc2cc(Cl)ccn2c1C(=O)NCc1ccc(N2CCC(Oc3ccc(F)cc3)CC2)cc1 [compound 70, 7-Chloro-2-ethyl-N-(4-(4-(4-fluorophenoxy)piperidin-1-yl)benzyl)imidazo[1,2-a]pyridine-3-carboxamide] | 1 to 20 | 138 to 139 °C | > 69 |
| CCc1nc2cc(Cl)ccn2c1C(=O)NCc1ccc(N2CCN(Cc3ccc(OC(F)(F)F)cc3)CC2)cc1 [compound 157, 7-Chloro-2-ethyl-N-(4-(4-(4-(trifluoromethoxy)benzyl)piperazin-1-yl)benzyl)imidazo[1,2-a]pyridine-3-carboxamide] | 1 to 20 | 137.1 to 137.6 °C | > 69 |
| CCc1nc2cc(Cl)ccn2c1C(=O)NCc1ccc(N2CC(C)CC(C)C2)cc1 (centres unmarked) [compound 198, 7-Chloro-N-(4-(3,5-dimethylpiperidin-1-yl)benzyl)-2-ethylimidazo[1,2-a]pyridine-3-carboxamide] | – | 181.5 to 182.8 °C | 40 to 69 |
| CCc1nc2ccc(F)cn2c1C(=O)NCc1ccc(N2CCN(c3ccc(F)cc3)CC2)cc1 [compound 228, 2-Ethyl-6-fluoro-N-(4-(4-(4-fluorophenyl)piperazin-1-yl)benzyl)imidazo[1,2-a]pyridine-3-carboxamide] | 1 to 20 | 200.9 °C | > 69 |
| CCc1nc2cc(-c3cccnc3)ccn2c1C(=O)NCc1ccc(N2CCOCC2)cc1 [compound 305, 2-Ethyl-N-(4-morpholinobenzyl)-7-(pyridin-3-yl)imidazo[1,2-a]pyridine-3-carboxamide] | – | 208.5 °C | < 40 |
| CCc1nc2cc(Cl)ccn2c1C(=O)NCc1ccc(NCc2ccc(OC(F)(F)F)cc2)cc1 [compound 215, 7-Chloro-2-ethyl-N-(4-((4-(trifluoromethoxy)benzyl)amino)benzyl)imidazo[1,2-a]pyridine-3-carboxamide] | – | 169.6 °C | 40 to 69 |
| CCc1nc2cc(Cl)ccn2c1C(=O)NCc1ccc(N2CCC(C(F)(F)F)CC2)cc1 [compound 234, 7-Chloro-2-ethyl-N-(4-(4-(trifluoromethyl)piperidin-1-yl)benzyl)imidazo[1,2-a]pyridine-3-carboxamide] | – | 209.4 °C | < 40 |
